Measured values taken from the supplement of paper PMC10790783.

tested on: MRC5-hT fibroblasts expressing HCMV UL38 (glucose-free medium); assay: rescue of cell number (AUC of dose-response) relative to untreated glucose-free control; higher = stronger protection from glucose-starvation-induced cell death; conditions: glucose: 0 (glucose-free DMEM); 96 h; dose range 0.001-20, 10-point curve µM
Description: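 MRC5-hT fibroblasts stably expressing HCMV UL38 were seeded in 384-well plates, serum-starved for 24 h, switched to glucose-free DMEM, and pin-transferred with a metabolism-focused compound library as 10-point dose curves (1 nM to 20 µM; n=2). Nuclei were counted by Hoechst imaging 96 h after glucose withdrawal.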

Structure (SMILES) | rescue of cell number [%]
O=C(C1CC1)N1CC[C@@H](Cc2n[nH]c(=O)n2-c2ccc(-c3ccc4occc4c3)cc2)C1 | 117
Fc1ccc(CNc2ncnc3ccc(F)cc23)cc1 [Spautin_1] | 2.13
O=C(O)c1ccccc1SC1=NS(=O)(=O)c2ccccc21 | -13.9
O=C(O)c1ccc2cc(-c3ccc(O)c(C45CC6CC(CC(C6)C4)C5)c3)ccc2c1 [CD_437] | 25.4
Cc1ccccc1C(C(=O)NC1CCCC1)N(C(=O)Cn1cnc2ccccc21)c1cccc(F)c1 (configuration not stated) [ML309] | 94.6
Oc1cc(Cl)ccc1Oc1ccc(Cl)cc1Cl [Triclosan] | 5.01
CC(=O)NC[C@H]1CN(c2ccc(N3CCOCC3)c(F)c2)C(=O)O1 [Linezolid] | -6.21
CCC(C)N(C)C(=O)c1cc2ccccc2c(-c2ccccc2Cl)n1 (configuration not stated) | 15.2
CC(C)C[C@@H](C(=O)N[C@H](C(=O)OC1CCCC1)c1ccccc1)[C@H](O)C(=O)NO [CHR_2797] | -14.9
O=C(O)c1cc(/N=N/c2ccc(S(=O)(=O)Nc3ccccn3)cc2)ccc1O [Sulfasalazine] | 87.4
Cc1ccc(-c2cc(C(F)(F)F)nn2-c2ccc(S(N)(=O)=O)cc2)cc1 [Celecoxib] | 68.1
O=C1CCCC(=O)C1C(=O)c1ccc(C(F)(F)F)cc1[N+](=O)[O-] [Nitisinone] | 5
OC[C@H]1O[C@@H](n2cnc3c2N=CNC[C@H]3O)C[C@@H]1O [Pentostatin] | -17.8
CCc1ccc(CCOc2ccc(CC3SC(=O)NC3=O)cc2)nc1 (configuration not stated) [Pioglitazone] | 69
Cc1ccccc1C(C(=O)NC1CCCCC1)N(C(=O)Cn1ccnc1C)c1cccc(F)c1 (configuration not stated) [AGI_5198] | 48.3
CCc1c(-c2ccccc2)c(-c2ccccc2)nn1-c1ccccc1-c1cccc(OCC(=O)O)c1 | -14.6
COc1cccc2c(NCc3ccccc3)nc(-n3c(N)nc4ccccc43)nc12 [ML240] | 57.1
CC1=C(/C=C/C(C)=C/C=C/C(C)=C/C(=O)Nc2ccc(O)cc2)C(C)(C)CCC1 [Fenretinide] | 12.2
N#Cc1cn([C@@H]2O[C@H](CO)[C@@H](O)[C@H]2O)c2ncnc(N)c12 [Toyocamycin] | 9.71
Cc1c(-c2ccc(-c3ccccc3F)cc2)nc2ccc(F)cc2c1C(=O)O [Brequinar] | 126
NS(=O)(=O)c1cc(C(=O)O)c(NCc2ccco2)cc1Cl [Furosemide] | -15.9
CN(C)C(=N)NC(=N)N [Metformin] | -36.3
CCCCC/C=C/C(=O)CCc1ccc(O)c(OC)c1 [Shogaol] | -6.33
O=[N+]([O-])c1ccc(O)c([N+](=O)[O-])c1 [2_4_Dinitrophenol] | 16.9
CC(=O)N[C@H]1[C@@H](O[C@@H]2O[C@H](CC(O)[C@H]3O[C@@H](n4ccc(=O)[nH]c4=O)[C@H](O)[C@@H]3O)[C@H](O)[C@H](O)[C@H]2NC(=O)/C=C/CC(C)C)O[C@H](CO)[C@@H](N)[C@@H]1O (some centres not stated) [Tunicamycin] | 3.6
NS(=O)(=O)c1ccc(NC(=O)Nc2ccc(F)cc2)cc1 [U_104] | -34.7

Structure (SMILES) | rescue of cell number [%]
COc1ccccc1OCC(O)CN1CCN(CC(=O)Nc2c(C)cccc2C)CC1 (configuration not stated) [Ranolazine] | -35.4
N#Cc1ccnc(N2C(=O)CC[C@H]2C(=O)N(c2cncc(F)c2)[C@H](C(=O)NC2CC(F)(F)C2)c2ccccc2Cl)c1 [AG-120] | -8.45
CC1=C(/C=C/C(C)=C/C=C/C(C)=C\C(=O)O)C(C)(C)CCC1 [Isotretinoin] | 128
O=C(/C=C/c1ccc(O)c(O)c1)O[C@@H]1C[C@](O)(C(=O)O)C[C@@H](O)[C@H]1O [Chlorogenic_acid] | 95
C[N+](C)(C)CCO.C[N+](C)(C)CCO.[SH-].[SH-].[S]=[Mo]=[S] [ATN-224] | -20.1
C=C(C)[C@H]1Cc2c(ccc3c2O[C@@H]2COc4cc(OC)c(OC)cc4[C@@H]2C3=O)O1 [Rotenone] | 13.7
NC(=O)c1ncn([C@@H]2O[C@H](CO)[C@@H](O)[C@H]2O)c1O [Mizoribine] | -26.6
CN1CCN(C(=O)c2ccc(-c3ccc4c(C=O)c(O)ccc4c3)s2)CC1 [MKC3946] | -14.6
Cn1c2cc([S+](C)[O-])sc2c2cnn(Cc3cccc(N)c3)c(=O)c21 (configuration not stated) [TEPP_46] | 92.3
C[C@H]1O[C@@H](O[C@H]2[C@@H](O)C[C@H](O[C@H]3[C@@H](O)C[C@H](O[C@H]4CC[C@@]5(C)[C@H](CC[C@@H]6[C@@H]5CC[C@]5(C)[C@@H](C7=CC(=O)OC7)CC[C@]65O)C4)O[C@@H]3C)O[C@@H]2C)C[C@H](O)[C@@H]1O [Digitoxin] | 23.7
COc1c(O)cc2oc(-c3ccc(O)cc3)cc(=O)c2c1O [Hispidulin] | 145
CCN(CC)Cc1ccc(C(=O)N(CCc2ccccc2OC)[C@@H]2CCNC2)cc1 | 63.9
Nc1ccn([C@H]2CC[C@@H](CO)O2)c(=O)n1 [Zalcitabine] | 9.86
CCOC(=O)[C@@H](N)CCC(=O)N[C@@H](CSCc1ccccc1)C(=O)N[C@@H](C(=O)OCC)c1ccccc1 [Ezatiostat] | -9.45
Clc1ccc(C(c2ccccc2Cl)C(Cl)Cl)cc1 (configuration not stated) [Mitotane] | 9.97
C/C=C(/C)C(=O)O[C@H]1C(C)=C2[C@H]([C@@H]1OC(=O)CCCCCCC)[C@@](C)(OC(C)=O)C[C@H](OC(=O)CCC)[C@@]1(O)[C@H]2OC(=O)[C@@]1(C)O [Thapsigargin] | 25.4
C=CCNC1=C2C[C@@H](C)C[C@H](OC)[C@H](O)[C@@H](C)/C=C(\C)[C@H](OC(N)=O)[C@@H](OC)/C=C\C=C(/C)C(=O)NC(=CC1=O)C2=O [17_AAG] | 54.1
CCN[C@H]1C[C@H](C)S(=O)(=O)c2sc(S(N)(=O)=O)cc21 [Dorzolamide] | 104
CCCCC[C@H](O)CC(=O)CCc1ccc(O)c(OC)c1 [[6]-Gingerol] | -29.7
Cc1ccccc1CN1C(=O)C2=C(CCN(Cc3ccccc3)C2)N2CCN=C12 [ONC-201] | 24
Cc1ccc(-c2cc(=O)c3ccc4ccccc4c3o2)cc1 | 155
Cc1cccc(CC(=O)N2CCc3c2ccc(-c2cn(C)c4ncnc(N)c24)c3F)n1 | 70.7
Oc1cccnc1NC(c1ccc(Cl)cc1)c1ccc2cccnc2c1O (configuration not stated) [Adaptaquin] | 33.2
COc1ccc(C(CN(C)C)C2(O)CCCCC2)cc1 (configuration not stated) [Venlafaxine] | 6.28
CC(=O)O[C@H]1C(=O)[C@@]2(C)[C@H]([C@H](OC(=O)c3ccccc3)[C@]3(O)C[C@H](OC(=O)[C@H](O)[C@@H](NC(=O)c4ccccc4)c4ccccc4)C(C)=C1C3(C)C)[C@]1(OC(C)=O)CO[C@@H]1C[C@@H]2O [Taxol] | 21.5
CCc1nc(N)nc(N)c1-c1ccc(Cl)cc1 [Pyrimethamine] | -35.1

Structure (SMILES) | rescue of cell number [%]
NC(=O)c1[nH]nc([C@@H]2O[C@H](CO)[C@@H](O)[C@H]2O)c1O [Pyrazofurin] | 26.5
CNCCC(Oc1ccc(C(F)(F)F)cc1)c1ccccc1 (configuration not stated) [Fluoxetine] | 47
CC(=O)OC[C@H]1O[C@@H]([S-])[C@H](OC(C)=O)[C@@H](OC(C)=O)[C@@H]1OC(C)=O.CCP(CC)CC.[Au+] [Auranofin] | -0.594
C=C1C(=O)O[C@H]2[C@H]1CC/C(C)=C/CC[C@@]1(C)O[C@@H]21 [Parthenolide] | 34.9
CN(N=O)C(=O)N[C@@H](C=O)[C@@H](O)[C@H](O)[C@H](O)CO [Streptozocin] | 33.4
COc1cc2c(cc1O)CC[C@@H]1[C@@H]2CC[C@]2(C)[C@@H](O)CC[C@@H]12 [2_Methoxyestradiol] | 22.8
CCCCCCCCCCCCCCCCOc1nc2ccc(C)cc2c(=O)o1 [Cetilistat] | -5.21
O=C(O)C[C@@]1(O)C[C@@H](CCCCCCc2ccc(Cl)cc2Cl)OC1=O | 45.4
OCCN(CCO)c1nc(N2CCCCC2)c2nc(N(CCO)CCO)nc(N3CCCCC3)c2n1 [Dipyridamole] | 141
c1ccc2c(c1)[I+]c1ccccc1-2 [Diphenyleneiodonium_chloride] | 22.9
CCCc1cc(-c2nc(-c3ccc(C)cc3)cs2)ccn1 [Fatostatin_A] | 76.5
Cc1[nH]nc(C(F)(F)F)c1Cc1sc2c(c1C(=O)N1C[C@](C)(O)CO1)c(=O)n(C)c(=O)n2C(C)C [AZD3965] | 0.308
CC1=C(/C=C/C(C)=C/C=C/C(C)=C/C(=O)O)C(C)(C)CCC1 [Tretinoin] | 10
O=C(Nc1ccccc1)Nc1ccc(-c2ccc(C(=O)[C@@H]3CCC[C@H]3C(=O)O)cc2)cc1 | -36.5
Cc1cc(=O)oc2c(C=O)c(O)ccc12 [4mu8C] | 23.6
S=c1nc[nH]c2nc[nH]c12 [6_Mercaptopurine] | -28.9
CCCCCCCCc1ccc(CCC(N)(CO)CO)cc1 [Fingolimod] | -1.64
O=c1oc2ccccc2c(O)c1Cc1c(O)c2ccccc2oc1=O [Dicoumarol] | -17.7
COc1c(C)c2c(c(O)c1C/C=C(\C)CCC(=O)O)C(=O)OC2 [Mycophenolic_Acid] | 51.6
Cc1oncc1C(=O)Nc1ccc(C(F)(F)F)cc1 [Leflunomide] | 9.81
Cc1cnc(Nc2ccc(OCCN3CCCC3)cc2)nc1Nc1cccc(S(=O)(=O)NC(C)(C)C)c1 [Fedratinib] | 40.7
S=C=NCCc1ccccc1 [PEITC] | 37.8
CC[C@H](C)C(=O)O[C@H]1C[C@H](O)C=C2C=C[C@H](C)[C@H](CC[C@@H](O)C[C@@H](O)CC(=O)O)[C@H]21 [Pravastatin] | -35.3
CC(C)(C(=O)c1cccnc1)c1cccnc1 [Metyrapone] | 87.6
O=C1CSC(c2ccccc2Cl)c2cc(Cl)ccc2N1 (configuration not stated) | 3.61
